Laboratory results reported in US4487924A, “2'-N-β-Lysyl) aminoglycosides” (Kowa Company, Ltd., priority 1982, dated 1984).
Values after ≈ are worked out from the molar mass of the structure shown. Read-outs that look alike come from different tables or passages of the source.

How the values were obtained:
Test in all cases: Antibiotic activity (MIC), Table 1
Type in all cases: cell-based
[1] = test system: P. aerugionosa TK-157 (APH(3')-II)
[2] = test system: K. pneumoniae 4687 (AAD(2"))
[3] = test system: P. aeruginosa RST-1 (AAC(3)-III)
P. putida IID 5121 = test system: P. putida IID 5121
S. aureus 209P JC-1 = test system: S. aureus 209P JC-1
P. vulgaris IID 874 = test system: P. vulgaris IID 874
E. coli JR 88 (AAC(3)-I) = test system: E. coli JR 88 (AAC(3)-I)
[4] = test system: P. aeruginosa GN315 (AAC(6')-IV)
S. marcescens NHL = test system: S. marcescens NHL
S. faecalis Imanari = test system: S. faecalis Imanari
[5] = test system: P. inconstans GN1554 (AAC(2'))
[6] = test system: P. aeruginosa 99 (AAC(3)-I)
[7] = test system: P. aeruginosa TI 13 (APH(3')-I)
P. inconstans 93 = test system: P. inconstans 93
K. pneumoniae PCI 602 = test system: K. pneumoniae PCI 602
P. cepacia 11D 1340 = test system: P. cepacia 11D 1340
E. coli R176 (AAC(3)-II) = test system: E. coli R176 (AAC(3)-II)
[8] = test system: E. coli ML 1410 R102 (AAD(2"))
B. subtilis ATCC 6633 = test system: B. subtilis ATCC 6633
E. cloacae IID 977 = test system: E. cloacae IID 977
P. maltophilia IID 1275 = test system: P. maltophilia IID 1275
E. coli ML 1410 = test system: E. coli ML 1410
E. coli NIHJ JC-2 = test system: E. coli NIHJ JC-2
P. aeruginosa NCTC 10490 = test system: P. aeruginosa NCTC 10490
[9] = test system: E. coli ML 1410 R82 (AAD(3"))
[10] = test system: E. coli ML 1410 R81 (APH(3')-I)
[11] = test system: E. coli ML 1410 R83 (APH(3')-II)
[12] = Pseudomonas aeruginosa, read-out: MIC
[13] = Escherichia coli, read-out: MIC
[14] = Pseudomonas aeruginosa, GN315, P. aeruginosa GN315 (AAC(6')-IV), read-out: MIC
[15] = Burkholderia cepacia, 11D1340, read-out: MIC
[16] = Bacillus subtilis, ATCC6633, B. subtilis ATCC 6633, read-out: MIC
[17] = P. aeruginosa GN315 (AAC(6')-IV)

## CNC1C(OC)CC(N)C(OC2OC(C(C)N)CCC2N)C1O (stereo not drawn) [KA-6606VIII, reference compound]
[1]
  MIC: 25 µg/mL (≈ 75.2 µM)
[2]
  MIC: 6.25 µg/mL (≈ 18.8 µM)
[3]; [12]
  MIC: 100 µg/mL (≈ 301 µM)
P. putida IID 5121; P. putida IID 5121
  MIC: 12.5 µg/mL (≈ 37.6 µM)
S. aureus 209P JC-1
  MIC: 0.78 µg/mL (≈ 2.35 µM)
P. vulgaris IID 874; P. vulgaris IID 874
  MIC: 12.5 µg/mL (≈ 37.6 µM)
E. coli JR 88 (AAC(3)-I); [13]
  MIC: 50 µg/mL (≈ 150 µM)
[4]; [14]
  MIC: 100 µg/mL (≈ 301 µM)
S. marcescens NHL
  MIC: 1.56 µg/mL (≈ 4.69 µM)
S. faecalis Imanari
  MIC: 3.13 µg/mL (≈ 9.42 µM)
[5]; P. inconstans GN1554 (AAC(2'))
  MIC: 1.56 µg/mL (≈ 4.69 µM)
[6]; [12]
  MIC: > 100 µg/mL
[7]
  MIC: 25 µg/mL (≈ 75.2 µM)
P. inconstans 93; P. inconstans 93
  MIC: 1.56 µg/mL (≈ 4.69 µM)
K. pneumoniae PCI 602; K. pneumoniae PCI 602
  MIC: 0.78 µg/mL (≈ 2.35 µM)
P. cepacia 11D 1340; [15]
  MIC: > 100 µg/mL
E. coli R176 (AAC(3)-II)
  MIC: 3.13 µg/mL (≈ 9.42 µM)
[8]
  MIC: 0.78 µg/mL (≈ 2.35 µM)
B. subtilis ATCC 6633; [16]
  MIC: 3.13 µg/mL (≈ 9.42 µM)
E. cloacae IID 977; E. cloacae IID 977
  MIC: 12.5 µg/mL (≈ 37.6 µM)
P. maltophilia IID 1275; P. maltophilia IID 1275
  MIC: 1.56 µg/mL (≈ 4.69 µM)
E. coli ML 1410; E. coli ML 1410
  MIC: 3.13 µg/mL (≈ 9.42 µM)
E. coli NIHJ JC-2; E. coli NIHJ JC-2
  MIC: 3.13 µg/mL (≈ 9.42 µM)
P. aeruginosa NCTC 10490; P. aeruginosa NCTC 10490
  MIC: 12.5 µg/mL (≈ 37.6 µM)

## CNC1C(OC)CC(N)C(OC2OC(C(C)N)CCC2NC(=O)C[C@@H](N)CCCN)C1O (stereo partly drawn) [2'-N-β-Lysyl KA-6606VIII, 2'-N-(L-β-lysyl)-KA-6606VIII]
[1]; read-out: MIC
  MIC: 25 µg/mL (≈ 54.3 µM)
[2]; Klebsiella pneumoniae, read-out: MIC
  MIC: 0.78 µg/mL (≈ 1.69 µM)
[3]; [12]
  MIC: 100 µg/mL (≈ 217 µM)
P. putida IID 5121; Pseudomonas putida, IID5121, P. putida IID 5121, read-out: MIC
  MIC: 3.13 µg/mL (≈ 6.8 µM)
S. aureus 209P JC-1; Staphylococcus aureus, 209P, read-out: MIC
  MIC: 0.39 µg/mL (≈ 0.847 µM)
P. vulgaris IID 874; Proteus vulgaris, IID874, P. vulgaris IID 874, read-out: MIC
  MIC: 12.5 µg/mL (≈ 27.1 µM)
E. coli JR 88 (AAC(3)-I); [13]
  MIC: 0.78 µg/mL (≈ 1.69 µM)
[4]; [14]
  MIC: 25 µg/mL (≈ 54.3 µM)
S. marcescens NHL; Serratia marcescens, read-out: MIC
  MIC: 0.2 µg/mL (≈ 0.434 µM)
S. faecalis Imanari; Enterococcus faecalis, read-out: MIC
  MIC: 1.56 µg/mL (≈ 3.39 µM)
[5]; Providencia alcalifaciens, GN1554, P. inconstans GN1554 (AAC(2')), read-out: MIC
  MIC: 0.2 µg/mL (≈ 0.434 µM)
[6]; [12]
  MIC: 50 µg/mL (≈ 109 µM)
[7]; Pseudomonas aeruginosa
  MIC: 25 µg/mL (≈ 54.3 µM)
P. inconstans 93; Providencia alcalifaciens, 93, P. inconstans 93, read-out: MIC
  MIC: 0.39 µg/mL (≈ 0.847 µM)
K. pneumoniae PCI 602; Klebsiella pneumoniae, PCI602, K. pneumoniae PCI 602, read-out: MIC
  MIC: 0.78 µg/mL (≈ 1.69 µM)
P. cepacia 11D 1340; [15]
  MIC: > 100 µg/mL
E. coli R176 (AAC(3)-II); [13]
  MIC: 0.78 µg/mL (≈ 1.69 µM)
[8]; Escherichia coli
  MIC: 0.39 µg/mL (≈ 0.847 µM)
B. subtilis ATCC 6633; [16]
  MIC: 3.13 µg/mL (≈ 6.8 µM)
E. cloacae IID 977; Enterobacter cloacae, IID977, E. cloacae IID 977, read-out: MIC
  MIC: 3.13 µg/mL (≈ 6.8 µM)
P. maltophilia IID 1275; Stenotrophomonas maltophilia, IID1275, P. maltophilia IID 1275, read-out: MIC
  MIC: 1.56 µg/mL (≈ 3.39 µM)
E. coli ML 1410; Escherichia coli, ML1410, E. coli ML 1410, read-out: MIC
  MIC: 0.78 µg/mL (≈ 1.69 µM)
E. coli NIHJ JC-2; Escherichia coli, NIHJJC2, E. coli NIHJ JC-2, read-out: MIC
  MIC: 1.56 µg/mL (≈ 3.39 µM)
P. aeruginosa NCTC 10490; Pseudomonas aeruginosa, NCTC10490, P. aeruginosa NCTC 10490, read-out: MIC
  MIC: 6.25 µg/mL (≈ 13.6 µM)
[9]; Escherichia coli
  MIC: 0.39 µg/mL (≈ 0.847 µM)

## CNC1C(O)CC(N)C(OC2OC(C(C)N)CCC2NC(=O)C[C@@H](N)CCCN)C1O (stereo partly drawn) [2'-N-β-Lysyl 5-de-O-Me KA-6606II, 2'-N-(L-β-lysyl)-5-de-O-methyl-KA-6606II]
[1]
  MIC: 50 µg/mL (≈ 112 µM)
[2]
  MIC: 12.5 µg/mL (≈ 28 µM)
[3]
  MIC: 100 µg/mL (≈ 224 µM)
P. putida IID 5121; P. putida IID 5121
  MIC: 25 µg/mL (≈ 56 µM)
S. aureus 209P JC-1
  MIC: 0.78 µg/mL (≈ 1.75 µM)
P. vulgaris IID 874; P. vulgaris IID 874
  MIC: 25 µg/mL (≈ 56 µM)
E. coli JR 88 (AAC(3)-I)
  MIC: 12.5 µg/mL (≈ 28 µM)
[4]; [17]
  MIC: > 100 µg/mL
S. marcescens NHL
  MIC: 3.13 µg/mL (≈ 7.01 µM)
S. faecalis Imanari
  MIC: 3.13 µg/mL (≈ 7.01 µM)
[5]; P. inconstans GN1554 (AAC(2'))
  MIC: 1.56 µg/mL (≈ 3.49 µM)
[6]
  MIC: > 100 µg/mL
[7]
  MIC: 50 µg/mL (≈ 112 µM)
P. inconstans 93; P. inconstans 93
  MIC: 1.56 µg/mL (≈ 3.49 µM)
K. pneumoniae PCI 602; K. pneumoniae PCI 602
  MIC: 0.78 µg/mL (≈ 1.75 µM)
P. cepacia 11D 1340
  MIC: > 100 µg/mL
E. coli R176 (AAC(3)-II)
  MIC: 6.25 µg/mL (≈ 14 µM)
B. subtilis ATCC 6633; B. subtilis ATCC 6633
  MIC: 3.13 µg/mL (≈ 7.01 µM)
E. cloacae IID 977; E. cloacae IID 977
  MIC: 12.5 µg/mL (≈ 28 µM)
P. maltophilia IID 1275; P. maltophilia IID 1275
  MIC: 1.56 µg/mL (≈ 3.49 µM)
E. coli ML 1410; E. coli ML 1410
  MIC: 6.25 µg/mL (≈ 14 µM)
E. coli NIHJ JC-2; E. coli NIHJ JC-2
  MIC: 3.13 µg/mL (≈ 7.01 µM)
P. aeruginosa NCTC 10490; P. aeruginosa NCTC 10490
  MIC: 25 µg/mL (≈ 56 µM)

## CNC1C(OC)CC(N)C(OC2OC(C(C)N)CCC2N)C1O (stereo not drawn) [KA-6606II, reference compound]
[1]
  MIC: > 100 µg/mL
[2]
  MIC: > 100 µg/mL
[3]
  MIC: > 100 µg/mL
P. putida IID 5121; P. putida IID 5121
  MIC: > 100 µg/mL
S. aureus 209P JC-1
  MIC: 25 µg/mL (≈ 75.2 µM)
P. vulgaris IID 874; P. vulgaris IID 874
  MIC: 100 µg/mL (≈ 301 µM)
[10]
  MIC: > 100 µg/mL
E. coli JR 88 (AAC(3)-I)
  MIC: > 100 µg/mL
[4]; [17]
  MIC: > 100 µg/mL
S. marcescens NHL
  MIC: 100 µg/mL (≈ 301 µM)
S. faecalis Imanari
  MIC: 100 µg/mL (≈ 301 µM)
[5]; P. inconstans GN1554 (AAC(2'))
  MIC: > 100 µg/mL
[6]
  MIC: > 100 µg/mL
[7]
  MIC: > 100 µg/mL
P. inconstans 93; P. inconstans 93
  MIC: > 100 µg/mL
K. pneumoniae PCI 602; K. pneumoniae PCI 602
  MIC: > 100 µg/mL
P. cepacia 11D 1340
  MIC: > 100 µg/mL
[11]
  MIC: > 100 µg/mL
E. coli R176 (AAC(3)-II)
  MIC: > 100 µg/mL
[8]
  MIC: > 100 µg/mL
B. subtilis ATCC 6633; B. subtilis ATCC 6633
  MIC: 6.25 µg/mL (≈ 18.8 µM)
E. cloacae IID 977; E. cloacae IID 977
  MIC: > 100 µg/mL
P. maltophilia IID 1275; P. maltophilia IID 1275
  MIC: > 100 µg/mL
E. coli ML 1410; E. coli ML 1410
  MIC: > 100 µg/mL
E. coli NIHJ JC-2; E. coli NIHJ JC-2
  MIC: 50 µg/mL (≈ 150 µM)
P. aeruginosa NCTC 10490; P. aeruginosa NCTC 10490
  MIC: > 100 µg/mL
[9]
  MIC: > 100 µg/mL
